Measured values published in patent US10988485B2 (Amgen Inc., priority 2018, dated 2021).
Read-outs that look alike come from different tables or passages of the source.

Legend:
[1] = target: GDP-bound KRAS protein (aa 1-169), containing both G12C and C118A amino acid substitutions (Homo sapiens, UniProt P01116, C118A/G12C); experiment: Coupled Nucleotide Exchange Assay (SOS-mediated nucleotide exchange, AlphaScreen); format: biochemical; conditions: compound pre-incubation either 5 min or 2 hours (not stated per compound); SOS and GTP added, cRAF AlphaScreen read-out
Description: (§1) For compounds in Table 6, the following assay conditions were employed:
Coupled Nucleotide Exchange Assay: Purified GDP-bound KRAS protein (aa 1-169), containing both G12C and C118A amino acid substitutions and an N-terminal His-tag, was pre-incubated in assay buffer (25 mM HEPES pH 7.4, 10 mM MgCl2, and 0.01% Triton X-100) with a compound dose-response titration for either 5 min or 2 hours (see Table 15). Following compound pre-incubation, purified SOS protein (aa 564-1049) and GTP (Roche 10106399001) were added to the assay wells and incubated for an additional 30 min (for 5 min compound pre-incubation) or 1 hour (for 2 hour compound pre-incubation). To determine the extent of inhibition of SOS-mediated nucleotide exchange, purified GST-tagged cRAF (aa 1-149), nickel chelate AlphaLISA acceptor beads (PerkinElmer AL108R), and AlphaScreen glutathione donor beads (PerkinElmer 6765302) were added to the assay wells and incubated for 10 minutes. The assay plates were then read on a PerkinElmer EnVision Multilabel Reader, using AlphaScreen® technology, and data were analyzed using a 4-parameter logistic model to calculate IC50 values.

[2] = test system: Phosphorylation of ERK1/2 in MIA PaCa-2 cells; experiment: Phospho-ERK1/2 MSD Assay; format: cell-based; conditions: compound 2 or 4 hours, then 10 ng/mL EGF for 10 min, read-out: p-ERK IC50 (MIA-PaCa-2) (converted)
Description: as §1
Phospho-ERK1/2 MSD Assay: MIA PaCa-2 (ATCC® CRL-1420™) cells were cultured in RPMI 1640 Medium (ThermoFisher Scientific 11875093) containing 10% fetal bovine serum (ThermoFisher Scientific 16000044) and 1× penicillin-streptomycin-glutamine (ThermoFisher Scientific 10378016). Sixteen hours prior to compound treatment, MIA PaCa-2 cells were seeded in 96-well cell culture plates at a density of 25,000 cells/well and incubated at 37° C., 5% CO2. A compound dose-response titration was diluted in growth media, added to appropriate wells of a cell culture plate, and then incubated at 37° C., 5% CO2 for 2 or 4 hours. Following compound treatment, cells were stimulated with 10 ng/mL EGF (Roche 11376454001) for 10 min, washed with ice-cold Dulbecco's phosphate-buffered saline, no Ca^2+ or Mg^2+ (ThermoFisher Scientific 14190144), and then lysed in RIPA buffer (50 mM Tris-HCl pH 7.5, 1% Igepal, 0.5% sodium deoxycholate, 150 mM NaCl, and 0.5% sodium dodecyl sulfate) containing protease inhibitors (Roche 4693132001) and phosphatase inhibitors (Roche 4906837001). Phosphorylation of ERK1/2 in compound-treated lysates was assayed using Phospho-ERK1/2 Whole Cell Lysate kits (Meso Scale Discovery K151DWD) according to the manufacturer's protocol. Assay plates were read on a Meso Scale Discovery Sector imager 6000, and data were analyzed using a 4-parameter logistic model to calculate IC50 values.

[3] = Homo sapiens, MIA PaCa-2, MIA PaCa-2 cells

Sequence of GDP-bound KRAS protein (aa 1-169), containing both G12C and C118A amino acid substitutions (P01116 1-169 isoform P01116-2 G12C/C118A): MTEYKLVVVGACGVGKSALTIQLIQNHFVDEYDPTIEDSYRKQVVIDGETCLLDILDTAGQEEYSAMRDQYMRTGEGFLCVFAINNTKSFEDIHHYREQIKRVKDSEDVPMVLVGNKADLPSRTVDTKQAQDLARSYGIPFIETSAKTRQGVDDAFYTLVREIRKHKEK

Row | IC50 [1] | IC50 ([2]; MIA PaCa-2 cells) | IC50 [2, 3] | Compound
1 | 150 nM | 330 nM |  | C=CC(=O)N1C[C@H](C)N(C2=NS(=O)(=O)N(c3c(C)cnn3C(C)C)c3nc(-c4ccccc4F)c(Cl)cc32)C[C@H]1C (single isomer, unassigned) [Example 1-11-2]
2 | 220 nM |  | 290 nM | C=CC(=O)N1C[C@H](C)N(C2=NS(=O)(=O)N(c3c(C)ccnc3C(C)C)c3nc(-c4ccccc4C)c(Cl)cc32)C[C@H]1C (single isomer, unassigned) [Example 1-12-1]
3 | 240 nM | 270 nM |  | C=CC(=O)N1CCN(C2=NS(=O)(=O)N(c3c(C)ccnc3C(C)C)c3nc(-c4ccccc4F)c(Cl)cc32)[C@@H](C)C1 (single isomer, unassigned) [Example 2-2-1]
4 | 2980 nM | 1520 nM |  | C=CC(=O)N1CCN(C2=NS(=O)(=O)N(c3c(C)ccnc3C(C)C)c3nc(-c4ccccc4F)c(Cl)cc32)[C@@H](C)C1 (single isomer, unassigned) [Example 2-2-2]
5 |  | 340 nM |  | C=CC(=O)N1C[C@H](C)N(C2=NS(=O)(=O)N(c3ccccc3C(C)(C)C)c3nc(-c4ccccc4F)c(Cl)cc32)C[C@H]1C [Example 1-1]
6 | 150 nM |  | 270 nM | C=CC(=O)N1CCN(C2=NS(=O)(=O)N(c3ccccc3C(C)C)c3nc(-c4c(O)cccc4F)c(Cl)cc32)[C@@H](C)C1 [Example 1-2, 1-((3S)-4-(6-chloro-7-(2-fluoro-6-hydroxyphenyl)-2,2-dioxido-1-(2-(2-propanyl)phenyl)-1H-pyrido[2,3-c][1,2,6]thiadiazin-4-yl)-3-methyl-1-piperazinyl)-2-propen-1-one]
7 | 60 nM |  | 70 nM | C=CC(=O)N1CCN(C2=NS(=O)(=O)N(c3ccccc3C(C)C)c3nc(-c4c(N)cccc4F)c(Cl)cc32)[C@@H](C)C1 [Example 1-3, 1-((3S)-4-(7-(2-amino-6-fluorophenyl)-6-chloro-2,2-dioxido-1-(2-(2-propanyl)phenyl)-1H-pyrido[2,3-c][1,2,6]thiadiazin-4-yl)-3-methyl-1-piperazinyl)-2-propen-1-one]
8 | 170 nM |  | 160 nM | C=CC(=O)N1C[C@H](C)N(C2=NS(=O)(=O)N(c3ccccc3C(C)C)c3nc(-c4c(O)cccc4F)c(Cl)cc32)C[C@H]1C [Example 1-4, 1-((2R,5S)-4-(6-chloro-7-(2-fluoro-6-hydroxyphenyl)-2,2-dioxido-1-(2-(2-propanyl)phenyl)-1H-pyrido[2,3-c][1,2,6]thiadiazin-4-yl)-2,5-dimethyl-1-piperazinyl)-2-propen-1-one]
9 | 100 nM |  | 110 nM | C=CC(=O)N1C[C@H](C)N(C2=NS(=O)(=O)N(c3scnc3C(C)C)c3nc(-c4c(O)cccc4F)c(Cl)cc32)C[C@H]1C [Example 1-5, 1-((2R,5S)-4-(6-chloro-7-(2-fluoro-6-hydroxyphenyl)-2,2-dioxido-1-(4-(2-propanyl)-1,3-thiazol-5-yl)-1H-pyrido[2,3-c][1,2,6]thiadiazin-4-yl)-2,5-dimethyl-1-piperazinyl)-2-propen-1-one]
10 | 190 nM |  | 180 nM | C=CC(=O)N1CCN(C2=NS(=O)(=O)N(c3ccccc3C(C)C)c3nc(-c4ccccc4S(C)(=O)=O)c(Cl)cc32)[C@@H](C)C1 [Example 1-9, 1-((3S)-4-(6-chloro-7-(2-(methylsulfonyl)phenyl)-2,2-dioxido-1-(2-(2-propanyl)phenyl)-1H-pyrido[2,3-c][1,2,6]thiadiazin-4-yl)-3-methyl-1-piperazinyl)-2-propen-1-one]
11 | 200 nM |  | 200 nM | C=CC(=O)N1C[C@H](C)N(C2=NS(=O)(=O)N(c3c(C)cnn3C(C)C)c3nc(-c4ccccc4F)c(Cl)cc32)C[C@H]1C [Example 1-11, 1-((2R,5S)-4-(6-chloro-7-(2-fluorophenyl)-1-(4-methyl-1-(2-propanyl)-1H-pyrazol-5-yl)-2,2-dioxido-1H-pyrido[2,3-c][1,2,6]thiadiazin-4-yl)-2,5-dimethyl-1-piperazinyl)-2-propen-1-one]
12 | 180 nM |  | 240 nM | C=CC(=O)N1C[C@H](C)N(C2=NS(=O)(=O)N(c3ccccc3C(C)C)c3nc(-c4ccccc4F)c(Cl)cc32)C[C@H]1C [Example 2-3, 1-((2R,5S)-4-(6-chloro-7-(2-fluorophenyl)-1-(2-isopropylphenyl)-2,2-dioxido-1H-pyrido[2,3-c][1,2,6]thiadiazin-4-yl)-2,5-dimethylpiperazin-1-yl)prop-2-en-1-one]
13 | 290 nM |  | 310 nM | C=CC(=O)N1CCN(C2=NS(=O)(=O)N(c3c(C(C)C)ncnc3C(C)C)c3nc(-c4ccccc4F)c(Cl)cc32)[C@@H](C)C1 [Example 2-4, (S)-1-(4-(6-chloro-1-(4,6-diisopropylpyrimidin-5-yl)-7-(2-fluorophenyl)-2,2-dioxido-1H-pyrido[2,3-c][1,2,6]thiadiazin-4-yl)-3-methylpiperazin-1-yl)prop-2-en-1-one]
14 | 800 nM |  |  | C=CC(=O)N1CCN(C2=NS(=O)(=O)N(c3ccccc3CC(C)C)c3nc(-c4ccccc4F)c(Cl)cc32)[C@@H](C)C1 [Example 3-2, 1-((3S)-4-(6-chloro-7-(2-fluorophenyl)-1-(2-(2-methylpropyl)phenyl)-2,2-dioxido-1H-pyrido[2,3-c][1,2,6]thiadiazin-4-yl)-3-methyl-1-piperazinyl)-2-propen-1-one]
15 | 5960 nM |  |  | C=CC(=O)N1C[C@H](C)N(C2=NS(=O)(=O)N(c3c(C)cc(CN(C)C)nc3C(C)C)c3nc(-c4ccccc4F)c(Cl)cc32)C[C@H]1C [Example 4, 1-((2R,5S)-4-(6-Chloro-1-(6-((dimethylamino)methyl)-4-methyl-2-(2-propanyl)-3-pyridinyl)-7-(2-fluorophenyl)-2,2-dioxido-1H-pyrido[2,3-c][1,2,6]thiadiazin-4-yl)-2,5-dimethyl-1-piperazinyl)-2-propen-1-one]
16 | 1030 nM |  |  | C=CC(=O)N1CCN(C2=NS(=O)(=O)N(c3ccccc3C(C)C)c3nc(-c4c(O)cccc4F)c(F)cc32)[C@@H](C)C1 [Example 5, 1-((3S)-4-(6-Fluoro-7-(2-fluoro-6-hydroxyphenyl)-1-(2-isopropylphenyl)-2,2-dioxido-1H-pyrido[2,3-c][1,2,6]thiadiazin-4-yl)-3-methylpiperazin-1-yl)prop-2-en-1-one]
17 | 16400 nM |  |  | C=CC(=O)N1C[C@H](C)N(C2=NS(=O)(=O)Nc3nc(-c4ccccc4F)c(Cl)cc32)C[C@H]1C [Example 7, 1-((2R,5S)-4-(6-Chloro-7-(2-fluorophenyl)-2,2-dioxido-1H-pyrido[2,3-c][1,2,6]thiadiazin-4-yl)-2,5-dimethyl-1-piperazinyl)-2-propen-1-one]
18 | 1460 nM |  |  | C=CC(=O)N1C[C@H](C)N(C2=NS(=O)(=O)N(c3c(C)cc(CN(C)C)cc3C(C)C)c3nc(-c4c(N)cccc4F)c(Cl)cc32)C[C@H]1C [Example 8-2, 1-((2R,5S)-4-(7-(2-amino-6-fluorophenyl)-6-chloro-1-(4-((dimethylamino)methyl)-2-methyl-6-(2-propanyl)phenyl)-2,2-dioxido-1H-pyrido[2,3-c][1,2,6]thiadiazin-4-yl)-2,5-dimethyl-1-piperazinyl)-2-propen-1-one]
